Data published in patent US20230279020A9, “CARM1 INHIBITORS AND USES THEREOF” (Epizyme, Inc., priority 2013, published 2023).

Target: Human CARM1 (PRMT4) (Homo sapiens (Human), UniProt Q86X55)
Experiment: CARM1 enzyme assay on peptide substrate (3H-SAM Flashplate)
Conditions: Biochemical potencies, classification codes; read-out: Biochem IC50

Chain of Human CARM1 (PRMT4) (Q86X55 other isoform, or with tags, fused parts or gaps isoform Q86X55-1): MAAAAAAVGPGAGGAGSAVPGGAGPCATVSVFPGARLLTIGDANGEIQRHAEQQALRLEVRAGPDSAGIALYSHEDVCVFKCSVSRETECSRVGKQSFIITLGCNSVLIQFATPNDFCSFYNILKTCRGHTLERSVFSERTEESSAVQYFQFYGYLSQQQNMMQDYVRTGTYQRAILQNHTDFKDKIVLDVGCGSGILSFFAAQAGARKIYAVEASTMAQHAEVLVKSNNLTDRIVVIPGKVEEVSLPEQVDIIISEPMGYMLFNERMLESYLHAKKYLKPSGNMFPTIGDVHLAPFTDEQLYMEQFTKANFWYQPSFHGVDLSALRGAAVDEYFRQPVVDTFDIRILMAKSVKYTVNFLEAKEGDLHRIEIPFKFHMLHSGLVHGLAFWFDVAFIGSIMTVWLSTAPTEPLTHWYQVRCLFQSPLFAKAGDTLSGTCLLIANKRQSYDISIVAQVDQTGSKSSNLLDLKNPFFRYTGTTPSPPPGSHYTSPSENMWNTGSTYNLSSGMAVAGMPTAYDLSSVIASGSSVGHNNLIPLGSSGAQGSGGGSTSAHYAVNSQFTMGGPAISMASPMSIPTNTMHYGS

| SMILES | IC50 [nM] |
| --- | --- |
| CNC[C@@H](O)COc1ccc(Cl)c(-c2nc(-c3c(C)noc3C)c(C)c(N3CC4CC4C3)n2)c1 (stereo partly drawn) [Example 235-3] | < 100 |
| CNCC(O)COc1cccc(-c2nc(NC3CCOCC3)c(C)c(-c3c(C)noc3C3CC3)n2)c1 (stereo not drawn) [Example 236-1a] | < 100 |
| CNC[C@@H](O)COc1ccc(Cl)c(-c2nc(-c3c(C)noc3C)c(C)c(N3Cc4c(C)nn(C)c4C3)n2)c1 [Example 236-3] | < 100 |
| CNCC(O)COc1cccc(-c2nc(NC3CN(CC(F)F)C3)c(C)c(-c3c(C)noc3C)n2)c1 (stereo not drawn) [Example 237-1a] | < 100 |
| CCOC(=O)N1CC(Nc2nc(-c3cccc(OCC(O)CNC)c3)nc(-c3c(C)noc3C)c2C)C1 (stereo not drawn) [Example 238-1a] | < 100 |
| CNC[C@@H](O)COc1ccc(Cl)c(-c2nc(-c3c(C)noc3C)c(C)c(N3CCC3)n2)c1 [Example 238-3] | < 100 |
| CNCC(O)COc1cccc(-c2nc(NC3CCOC(C)C3)c(C)c(-c3c(C)noc3C)n2)c1 (stereo not drawn) [Example 239-1a] | < 100 |
| CNC[C@@H](O)COc1ccc(Cl)c(-c2nc(-c3cnn(C)c3)c(C)c(-c3c(C)noc3C)n2)c1 [Example 239-3] | < 100 |
| CNCC(O)COc1cccc(-c2nc(NC3CCN(C4COC4)C3)c(C)c(-c3c(C)noc3C)n2)c1 (stereo not drawn) [Example 240-1a] | < 100 |
| CCO[C@@H]1CCC[C@H]1Nc1nc(-c2cc(OC[C@H](O)CNC)ccc2Cl)nc(-c2c(C)noc2C)c1C [Example 240-3] | < 100 |
| CNCC(O)COc1cccc(-c2nc(NC3CCCC3)c(C)c(-c3c(C)noc3C)n2)c1 (stereo not drawn) [Example 241-1a] | < 100 |
| CCO[C@@H]1CCC[C@H]1N(CC)c1nc(-c2cc(OC[C@H](O)CNC)ccc2Cl)nc(-c2c(C)noc2C)c1C [Example 241-3] | < 100 |
| CNCC(O)COc1cccc(-c2nc(NC3C[C@H]4CC[C@@H](C3)N4C(=O)OC)c(C)c(-c3c(C)noc3C)n2)c1 (stereo partly drawn) [Example 242-1a] | < 100 |
| CCO[C@H]1CCC[C@H]1Nc1nc(-c2cc(OC[C@H](O)CNC)ccc2Cl)nc(-c2c(C)noc2C)c1C [Example 242-3] | < 100 |
| CNCC(O)COc1cccc(-c2nc(NC3CCN(C(=O)C4CC4)C3)c(C)c(-c3c(C)noc3C)n2)c1 (stereo not drawn) [Example 243-1a] | < 100 |
| CNC[C@@H](O)COc1ccc(Cl)c(-c2nc(-c3c(C)noc3C)c(Cl)c(N3Cc4nc(C)sc4C3)n2)c1 [Example 243-3] | < 100 |
| CNCC(O)COc1cccc(-c2nc(NC3CCN(C(=O)N(C)C)CC3)c(C)c(-c3c(C)noc3C)n2)c1 (stereo not drawn) [Example 244-1a] | < 100 |
| CNC[C@@H](O)COc1ccc(F)c(-c2nc(-c3c(C)noc3C)c(C)c(N3Cc4cc(OC)cnc4C3)n2)c1 [Example 244-3] | < 100 |
| CNCC(O)COc1cccc(-c2nc(NC3CCN(C(=O)C4CC4)CC3)c(C)c(-c3c(C)noc3C)n2)c1 (stereo not drawn) [Example 245-1a] | < 100 |
| CNC[C@@H](O)COc1ccc(Cl)c(-c2nc(-c3c(C)noc3C)c(C)c(N3Cc4cnc(C)nc4C3)n2)c1 [Example 245-3] | < 100 |
| CNCC(O)COc1cccc(-c2nc(NC3CCCN(C4COC4)C3)c(C)c(-c3c(C)noc3C)n2)c1 (stereo not drawn) [Example 246-1a] | < 100 |
| CNC[C@@H](O)COc1ccc(Cl)c(-c2nc(-c3c(C)noc3C)c(C)c(N3CC4(CCC4)C3)n2)c1 [Example 246-3] | < 100 |
| CNCC(O)COc1cccc(-c2nc(NC3CCCN(C(=O)C4CC4)C3)c(C)c(-c3c(C)noc3C)n2)c1 (stereo not drawn) [Example 247-1a] | < 100 |
| CNC[C@@H](O)COc1ccc(C(F)(F)F)c(-c2nc(-c3c(C)noc3C)c(C)c(N3Cc4cncnc4C3)n2)c1 [Example 247-3] | < 100 |

| SMILES | IC50 [nM] |
| --- | --- |
| CNCC(O)COc1cccc(-c2nc(NCC3CCN(C(=O)N(C)C)CC3)c(C)c(-c3c(C)noc3C)n2)c1 (stereo not drawn) [Example 248-1a] | < 100 |
| CNC[C@@H](O)COc1ccc(Cl)c(-c2nc(-c3c(C)noc3C)c(C)c(N3Cc4cc(Br)cnc4C3)n2)c1 [Example 248-3] | < 100 |
| CNCC(O)COc1cccc(-c2nc(NCC3CCN(C(=O)C4CC4)CC3)c(C)c(-c3c(C)noc3C)n2)c1 (stereo not drawn) [Example 249-1a] | < 100 |
| CNC[C@@H](O)COc1ccc(Cl)c(-c2nc(-c3c(C)noc3C)cc(N3CC4(CCOCC4)C3)n2)c1 [Example 249-3] | < 100 |
| CNCC(O)COc1cccc(-c2nc(N[C@@H]3CCC[C@@H]3O)c(C)c(-c3c(C)noc3C)n2)c1 (stereo partly drawn) [Example 250-1a] | < 100 |
| CNC[C@@H](O)COc1ccc(Cl)c(-c2nc(-c3c(C)noc3C)cc(N3Cc4cnn(C)c4C3)n2)c1 [Example 250-3] | < 100 |
| CNCC(O)COc1cccc(-c2nc(-c3c(C)noc3C)c(C)c(N3CCC4(CC3)CN(C(=O)OC)C4)n2)c1 (stereo not drawn) [Example 251-1a] | < 100 |
| CNC[C@@H](O)COc1ccc(Cl)c(-c2nc(-c3c(C)noc3C)cc(N3Cc4nccnc4C3)n2)c1 [Example 251-3] | < 100 |
| CNCC(O)COc1cccc(-c2nc(-c3c(C)noc3C)c(C)c(N3CCC4(CC3)CN(C(=O)N(C)C)C4)n2)c1 (stereo not drawn) [Example 252-1a] | < 100 |
| CNC[C@@H](O)COc1ccc(Cl)c(-c2nc(-c3c(C)noc3C)c(C)c(N3Cc4nn(C)c(C)c4C3)n2)c1 [Example 252-3] | < 100 |
| CCS(=O)(=O)N1CC2(CCN(c3nc(-c4cccc(OCC(O)CNC)c4)nc(-c4c(C)noc4C)c3C)CC2)C1 (stereo not drawn) [Example 253-1a] | < 100 |
| CCO[C@@H]1CCC[C@@H]1Nc1nc(-c2cc(OC[C@H](O)CNC)ccc2Cl)nc(-c2c(C)noc2C)c1C [Example 253-3] | < 100 |
| CNCC(O)COc1cccc(-c2nc(N[C@H]3C[C@H](O)C3)c(C)c(-c3c(C)noc3C)n2)c1 (stereo partly drawn) [Example 254-1a] | < 100 |
| CCO[C@@H]1CCC[C@@H]1N(CC)c1nc(-c2cc(OC[C@H](O)CNC)ccc2Cl)nc(-c2c(C)noc2C)c1C [Example 254-3] | < 100 |
| CNCC(O)COc1cccc(-c2nc(N[C@H]3C[C@@](C)(O)C3)c(C)c(-c3c(C)noc3C)n2)c1 (stereo partly drawn) [Example 255-1a] | < 100 |
| CCO[C@H]1CCC[C@H]1N(CC)c1nc(-c2cc(OC[C@H](O)CNC)ccc2Cl)nc(-c2c(C)noc2C)c1C [Example 255-3] | < 100 |
| CNCC(O)COc1cccc(-c2nc(N[C@H]3C[C@@H](O)C3)c(C)c(-c3c(C)noc3C)n2)c1 (stereo partly drawn) [Example 256-1a] | < 100 |
| CNCC(O)COc1cccc(-c2nc(NC3CCOCC3)c(C)c(-c3c(CO)noc3C)n2)c1 (stereo not drawn) [Example 256-3] | < 100 |
| CNC[C@@H](O)COc1ccc(Cl)c(-c2nc(N[C@@H]3CCO[C@@H](C)C3)c(C)c(-c3c(C)noc3C)n2)c1 [Example 257-3] | < 100 |
| CNCC(O)COc1cccc(-c2nc(NC[C@H]3COCCN3C(=O)N(C)C)c(C)c(-c3c(C)noc3C)n2)c1 (stereo partly drawn) [Example 258-1a] | < 100 |
| CNC[C@@H](O)COc1ccc(Cl)c(-c2nc(NC3CCN(C)CC3(F)F)c(C)c(-c3c(C)noc3C)n2)c1 (stereo partly drawn) [Example 258-3] | < 100 |
| CNCC(O)COc1cccc(-c2nc(OCC3CCN(C(=O)OCc4ccccc4)CC3)c(C)c(-c3c(C)noc3C)n2)c1 (stereo not drawn) [Example 259-1a] | < 100 |
| CNC[C@@H](O)COc1ccc(Cl)c(-c2nc(-c3c(C)noc3C)c(C)c(N3Cc4cnc(C5CC5)nc4C3)n2)c1 [Example 259-3] | < 100 |
| CNCC(O)COc1cccc(-c2nc(N[C@@H]3CCN(C4CC4)C[C@@H]3F)c(C)c(-c3c(C)noc3C)n2)c1 (stereo partly drawn) [Example 260-1a] | < 100 |
